Test results reported in patent US4301177A, “(3-Methyl-2-butenyl)propanedioic acid mono (1,2-diphenylhydrazide) and salts thereof” (Istituto de Angeli S.p.A., priority 1979, dated 1981).
Structures can show the parent of a compound that is named as a salt.

What was measured:
rats [1] = test: Analgesic-anti-inflammatory activity, Randall and Selitto, brewer's yeast inflamed paw in rats (Table IV); assay type: in vivo, male Sprague-Dawley rats
Experimental: (§1) In the present study the test compounds were administered perorally by means of a stomach tube as an aqueous suspension in 5% acacia gum at a constant volume of 10 ml/kg to male Swiss mice and male Sprague-Dawley rats. Control rats and mice were given a corresponding volume of the aqueous suspension medium. The results were statistically evaluated by Dunnett's test (C. V. Dunnett.: J.A. Stat. Ass., 40, 1096, 1955).
4. Analgesic-anti-inflammatory activity
The analgesic-anti-inflammatory activity was evaluated in rats by the method of Randall and Selitto (Arch. Int. Pharmacodyn., 111, 409, 1957), using an analgesimeter to measure the minimum load that must be applied to a rat's hind paw to elicit a painful stimulus.
Both the controls and the experimental rats were injected into the right hind paw with 0.1 ml of 20% brewer's yeast in sterile saline immediately before the administration of the test compound.
The volume of the inflamed right hind paw was measured 1, 2 and 4 hours after the administration of the test compound.
The analgesic-anti-inflammatory activity was evaluated using an "analgesic index" expressed as a ratio between the sum of the average weights (grams) necessary to provoke a painful stimulus at different times in treated and control animals.

rats [2] = test: Antipyretic activity, fever induced by brewer's yeast in rats (Table V); assay type: in vivo, male Sprague-Dawley rats
Experimental: as §1
The antipyretic activity was investigated in rats by the method of Niemegeers et al. (see Arzneim.Forsch. 25, 1519, 1975). The rectal temperature was measured immediately before and 4 hours after the subcutaneous injection of 1 ml/100 g body weight of a 15% brewer's yeast suspension in 1% acacia gum.
The test compound was administered orally to groups of 5 different rats per dose 4 hours after the yeast injection. The rectal temperature was measured 0.5, 1, 1.5, 2, 2.5, 3 and 19 hours after treatment.
(§2) Average values of the temperatures obtained in the treated rats were compared with those of control rats.

rats [3] = test: Ulcerogenic effect, gastric lesions in rats (Table VIII); assay type: in vivo, male Sprague-Dawley rats; details: single dose; for % animals with gastric lesions: 16 h
Experimental: as §1
The ulcerogenic effect was determined in rats by the method of Niemegeers et al. (Arzneimittel-Forschung 25, 1537, 1975). A single oral dose was administered to groups of 15 rats fasted for 9 hours before treatment and kept fasting throughout the whole experimental period. The animals were sacrificed 16 hours after treatment; the severity of lesions was scored according to an arbitrary scale ranging from + to ++++. For each group of rats, an ulcerogenic index was calculated according to Pauls et al., (Gastroenterology 8, 774, 1947).

rats [4] = test: Effect on normal temperature of rats (Table VI); assay type: in vivo, male Sprague-Dawley rats
Experimental: as §1
6. Effect on normal temperature of rats
The rectal temperature was measured at 30-minute intervals before and after administration of the test compound, that is, at -1.5, -1, -0.5, 0.5, 1, 1.5 and 2 hours, using groups of 10 rats each for each dosage level.
as §2

mice = test: Analgesic activity, hot plate test in mice (Table III); assay type: in vivo, male Swiss mice
Experimental: as §1
The analgesic activity was evaluated in mice by the hot plate test according to Janssen and Jageneau (J.Pharm.Pharmac., 9, 381, 1957).
The plate temperature was kept constant at 55° C.; the reaction time was determined before and 30, 60, 90 and 120 minutes after oral administration of the test compound. Average values after administration of the test compound were compared to those obtained before treatment.

rats [5] = test: Effect on arthritis induced in rats by Freund's adjuvant (Table II); assay type: in vivo, male Sprague-Dawley rats; details: day 20

CCCCC(C(=O)O)C(=O)N(Nc1ccccc1)c1ccccc1 (centres unmarked) [B, Calcium salt of butylpropanedioic acid mono(1,2-diphenylhydrazide), reference compound]
Mean of the weights eliciting painful stimulus (rats [1]; 40 mg/kg oral, 1 h): 145.0 grams
Mean of the weights eliciting painful stimulus (rats [1]; 40 mg/kg oral, 2 h): 108.8 grams
Mean of the weights eliciting painful stimulus (rats [1]; 40 mg/kg oral, 4 h): 105.0 grams
Mean of the weights eliciting painful stimulus (rats [1]; 80 mg/kg oral, 1 h): 140 grams
Mean of the weights eliciting painful stimulus (rats [1]; 80 mg/kg oral, 2 h): 128.8 grams
Mean of the weights eliciting painful stimulus (rats [1]; 80 mg/kg oral, 4 h): 110.0 grams
Mean of the weights eliciting painful stimulus (rats [1]; 160 mg/kg oral, 1 h): 142.8 grams
Mean of the weights eliciting painful stimulus (rats [1]; 160 mg/kg oral, 2 h): 161.2 grams
Mean of the weights eliciting painful stimulus (rats [1]; 160 mg/kg oral, 4 h): 140.0 grams
Rectal temperature (rats [2]; 40 mg/kg oral, 0 h (4 h after yeast, before treatment)): 38.08 °C
Rectal temperature (rats [2]; 40 mg/kg oral, 0.5 h): 38.05 °C
Rectal temperature (rats [2]; 40 mg/kg oral, 1 h): 38.20 °C
Rectal temperature (rats [2]; 40 mg/kg oral, 1.5 h): 38.09 °C
Rectal temperature (rats [2]; 40 mg/kg oral, 2 h): 38.17 °C
Rectal temperature (rats [2]; 40 mg/kg oral, 2.5 h): 38.45 °C
Rectal temperature (rats [2]; 40 mg/kg oral, 3 h): 38.01 °C
Rectal temperature (rats [2]; 40 mg/kg oral, 19 h): 37.28 °C
Rectal temperature (rats [2]; 40 mg/kg oral, -4 h (before yeast)): 36.74 °C
Rectal temperature (rats [2]; 80 mg/kg oral, 0 h (4 h after yeast, before treatment)): 38.02 °C
Rectal temperature (rats [2]; 80 mg/kg oral, 0.5 h): 37.10 °C
Rectal temperature (rats [2]; 80 mg/kg oral, 1 h): 37.38 °C
Rectal temperature (rats [2]; 80 mg/kg oral, 1.5 h): 37.48 °C
Rectal temperature (rats [2]; 80 mg/kg oral, 2 h): 37.65 °C
Rectal temperature (rats [2]; 80 mg/kg oral, 2.5 h): 37.96 °C
Rectal temperature (rats [2]; 80 mg/kg oral, 3 h): 37.80 °C
Rectal temperature (rats [2]; 80 mg/kg oral, 19 h): 37.44 °C
Rectal temperature (rats [2]; 80 mg/kg oral, -4 h (before yeast)): 36.96 °C
Rectal temperature (rats [2]; 160 mg/kg oral, 0 h (4 h after yeast, before treatment)): 38.52 °C
Rectal temperature (rats [2]; 160 mg/kg oral, 0.5 h): 37.89 °C
Rectal temperature (rats [2]; 160 mg/kg oral, 1 h): 37.81 °C
Rectal temperature (rats [2]; 160 mg/kg oral, 1.5 h): 37.90 °C
Rectal temperature (rats [2]; 160 mg/kg oral, 2 h): 37.34 °C
Rectal temperature (rats [2]; 160 mg/kg oral, 2.5 h): 37.50 °C
Rectal temperature (rats [2]; 160 mg/kg oral, 3 h): 37.41 °C
Rectal temperature (rats [2]; 160 mg/kg oral, 19 h): 36.75 °C
Rectal temperature (rats [2]; 160 mg/kg oral, -4 h (before yeast)): 36.06 °C
Body weight, mean ± standard deviation (rats [3]; 40 mg/kg oral): 194.67 ± 7.43 grams
% animals with gastric lesions (rats [3]; 40 mg/kg oral): 0%
Body weight, mean ± standard deviation (rats [3]; 80 mg/kg oral): 190.67 ± 8.84 grams
% animals with gastric lesions (rats [3]; 80 mg/kg oral): 0%
Body weight, mean ± standard deviation (rats [3]; 160 mg/kg oral): 198.00 ± 11.46 grams
% animals with gastric lesions (rats [3]; 160 mg/kg oral): 6.66%
Body weight, mean ± standard deviation (rats [3]; 320 mg/kg oral): 186.67 ± 7.24 grams
% animals with gastric lesions (rats [3]; 320 mg/kg oral): 64.28%
Rectal temperature (normal rats) (rats [4]; 40 mg/kg oral, 0.5 h): 36.02 °C
Rectal temperature (normal rats) (rats [4]; 40 mg/kg oral, 1 h): 36.13 °C
Rectal temperature (normal rats) (rats [4]; 40 mg/kg oral, 1.5 h): 36.10 °C
Rectal temperature (normal rats) (rats [4]; 40 mg/kg oral, 2 h): 36.20 °C
Rectal temperature (normal rats) (rats [4]; 40 mg/kg oral, -0.5 h (before administration)): 36.33 °C
Rectal temperature (normal rats) (rats [4]; 40 mg/kg oral, -1 h (before administration)): 36.62 °C
Rectal temperature (normal rats) (rats [4]; 40 mg/kg oral, -1.5 h (before administration)): 37.15 °C
Rectal temperature (normal rats) (rats [4]; 80 mg/kg oral, 0.5 h): 36.14 °C
Rectal temperature (normal rats) (rats [4]; 80 mg/kg oral, 1 h): 36.27 °C
Rectal temperature (normal rats) (rats [4]; 80 mg/kg oral, 1.5 h): 36.31 °C
Rectal temperature (normal rats) (rats [4]; 80 mg/kg oral, 2 h): 36.47 °C
Rectal temperature (normal rats) (rats [4]; 80 mg/kg oral, -0.5 h (before administration)): 36.34 °C
Rectal temperature (normal rats) (rats [4]; 80 mg/kg oral, -1 h (before administration)): 36.51 °C
Rectal temperature (normal rats) (rats [4]; 80 mg/kg oral, -1.5 h (before administration)): 36.69 °C
Rectal temperature (normal rats) (rats [4]; 160 mg/kg oral, 0.5 h): 35.62 °C
Rectal temperature (normal rats) (rats [4]; 160 mg/kg oral, 1 h): 35.70 °C
Rectal temperature (normal rats) (rats [4]; 160 mg/kg oral, 1.5 h): 35.92 °C
Rectal temperature (normal rats) (rats [4]; 160 mg/kg oral, 2 h): 36.24 °C
Rectal temperature (normal rats) (rats [4]; 160 mg/kg oral, -0.5 h (before administration)): 36.00 °C
Rectal temperature (normal rats) (rats [4]; 160 mg/kg oral, -1 h (before administration)): 36.52 °C
Rectal temperature (normal rats) (rats [4]; 160 mg/kg oral, -1.5 h (before administration)): 36.50 °C
Reaction time (mice; 50 mg/kg oral, 0 (before administration)): 14.00 ± 3.80 s
Reaction time (mice; 50 mg/kg oral, 30 min): 16.50 ± 3.60 s
Reaction time (mice; 100 mg/kg oral, 0 (before administration)): 14.30 ± 2.67 s
Reaction time (mice; 100 mg/kg oral, 90 min): 17.10 ± 4.48 s
Reaction time (mice; 100 mg/kg oral, 120 min): 16.10 ± 2.56 s
Reaction time (mice; 200 mg/kg oral, 0 (before administration)): 12.90 ± 2.92 s
% Inhibition (rats [5]; 40 mg/kg oral): 30%
% Inhibition (rats [5]; 80 mg/kg oral): 32%
% Inhibition (rats [5]; 160 mg/kg oral): 41.6%
